Measurements: patent US11046658B2, “Aminopyrazine derivatives as PI3K-γ inhibitors” (Incyte Corporation, priority 2018, dated 2021)
pIC50: −log10 of the molar value. Structures can show the parent of a compound that is named as a salt. Where two headings read alike, the source gives them in different places.

Legend:
[1] = target: PI3Kδ (p110δ/p85α) Recombinant Human Protein (Homo sapiens (Human), UniProt O00329); assay: PI3Kδ Scintillation Proximity Assay; format: biochemical; conditions: 2 μM ATP, 20 μM PIP2
PI3Kδ (p110δ/p85α) Recombinant Human Protein, sequence (O00329 whole entry): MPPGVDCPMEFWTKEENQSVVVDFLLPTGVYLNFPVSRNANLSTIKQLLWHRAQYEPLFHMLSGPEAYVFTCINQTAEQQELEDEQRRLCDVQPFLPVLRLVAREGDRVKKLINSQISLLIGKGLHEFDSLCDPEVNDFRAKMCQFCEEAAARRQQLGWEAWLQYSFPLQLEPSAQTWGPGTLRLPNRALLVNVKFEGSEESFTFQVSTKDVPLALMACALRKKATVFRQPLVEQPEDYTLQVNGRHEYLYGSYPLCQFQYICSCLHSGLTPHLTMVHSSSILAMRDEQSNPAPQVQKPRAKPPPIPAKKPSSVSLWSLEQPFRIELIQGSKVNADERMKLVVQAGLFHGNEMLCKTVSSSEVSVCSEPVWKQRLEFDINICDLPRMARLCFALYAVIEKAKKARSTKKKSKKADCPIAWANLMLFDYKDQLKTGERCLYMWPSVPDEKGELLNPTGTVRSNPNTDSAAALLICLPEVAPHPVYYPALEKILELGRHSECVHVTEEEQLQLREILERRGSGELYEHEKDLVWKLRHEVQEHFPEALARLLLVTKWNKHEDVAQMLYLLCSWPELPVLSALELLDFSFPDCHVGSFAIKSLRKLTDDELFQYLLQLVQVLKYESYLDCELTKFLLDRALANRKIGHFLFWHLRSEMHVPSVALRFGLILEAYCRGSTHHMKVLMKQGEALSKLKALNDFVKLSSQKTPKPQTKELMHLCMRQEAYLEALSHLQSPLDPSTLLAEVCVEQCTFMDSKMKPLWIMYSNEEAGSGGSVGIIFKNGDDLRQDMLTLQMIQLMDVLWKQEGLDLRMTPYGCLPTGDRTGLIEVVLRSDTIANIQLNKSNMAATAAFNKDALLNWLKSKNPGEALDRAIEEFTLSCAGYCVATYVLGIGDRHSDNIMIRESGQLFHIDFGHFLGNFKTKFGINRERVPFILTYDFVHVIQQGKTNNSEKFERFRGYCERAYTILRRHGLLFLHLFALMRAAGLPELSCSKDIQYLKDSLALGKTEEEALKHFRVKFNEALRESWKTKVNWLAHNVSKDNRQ
PI3Kδ (p110δ/p85α) Recombinant Human Protein, sequence (P27986 whole entry partner): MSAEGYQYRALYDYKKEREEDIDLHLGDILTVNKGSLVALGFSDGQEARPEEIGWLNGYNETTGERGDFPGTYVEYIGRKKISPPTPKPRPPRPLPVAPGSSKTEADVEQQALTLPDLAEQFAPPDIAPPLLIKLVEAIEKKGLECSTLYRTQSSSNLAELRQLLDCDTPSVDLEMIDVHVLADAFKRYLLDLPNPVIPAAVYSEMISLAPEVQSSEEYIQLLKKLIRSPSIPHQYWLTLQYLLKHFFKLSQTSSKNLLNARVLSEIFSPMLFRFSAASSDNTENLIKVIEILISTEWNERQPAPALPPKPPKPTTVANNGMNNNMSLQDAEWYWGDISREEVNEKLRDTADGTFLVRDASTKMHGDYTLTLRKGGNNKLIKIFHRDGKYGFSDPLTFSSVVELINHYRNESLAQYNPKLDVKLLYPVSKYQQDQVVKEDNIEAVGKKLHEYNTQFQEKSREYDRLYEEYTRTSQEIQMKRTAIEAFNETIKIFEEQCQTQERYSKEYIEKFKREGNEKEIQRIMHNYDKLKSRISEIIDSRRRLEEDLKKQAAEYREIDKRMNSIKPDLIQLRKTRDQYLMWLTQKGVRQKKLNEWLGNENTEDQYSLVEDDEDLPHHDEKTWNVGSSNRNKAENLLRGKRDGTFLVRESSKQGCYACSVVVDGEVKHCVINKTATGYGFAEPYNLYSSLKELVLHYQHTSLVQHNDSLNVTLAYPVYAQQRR
Excerpt: (§1) Materials: [γ-^33P]ATP (10 mCi/mL) and Wheat Germ Agglutinin (WGA) YSi SPA Scintillation Beads was purchased from Perkin Elmer (Waltham, Mass.). Lipid kinase substrate, D-myo-Phosphatidylinositol 4,5-bisphosphate (PtdIns(4,5)P2)D (+)-sn-1,2-di-O-octanoylglyceryl, 3-O-phospho linked (PIP2), CAS 204858-53-7, was purchased from Echelon Biosciences (Salt Lake City, Utah). PI3Kδ (p110δ/p85α) Recombinant Human Protein was purchased from Eurofins (St Charles, Mo.). ATP, MgCl2, DTT, EDTA, MOPS and CHAPS were purchased from Sigma Aldrich (St. Louis, Mo.).
(§2) The kinase reaction was conducted in polystyrene 384-well Greiner Bio-one white plate from Thermo Fisher Scientific in a final volume of 25 μL. Inhibitors were first diluted serially in DMSO and added to the plate wells before the addition of other reaction components. The final concentration of DMSO in the assay was 2%. The PI3Kδ assay was carried out at room temperature in 20 mM MOPS, pH 6.7, 10 mM MgCl2, 5 mM DTT and CHAPS 0.03%. Reactions were initiated by the addition of ATP, the final reaction mixture consisted of 20 μM PIP2, 2 μM ATP, 0.5 μCi [γ-^33P] ATP, 3.4 nM PI3Kδ. Reactions were incubated for 120 min and terminated by the addition of 40 μL SPA beads suspended in quench buffer: 163 mM potassium phosphate pH 7.8, 20% glycerol, 25 mM EDTA. The final concentration of SPA beads is 1.0 mg/mL. After the plate sealing, plates were shaken overnight at room temperature and centrifuged at 1500 rpm for 10 min, the radioactivity of the product was determined by scintillation counting on Topcount (PerkinElmer). IC50 determination was performed by fitting the curve of percent of the solvent control activity versus the log of the inhibitor concentration using the GraphPad Prism 6.0 software.

[2] = target: PI3Kγ (p110γ) Recombinant Human Protein (Homo sapiens (Human), UniProt P48736); assay: PI3K-γ Scintillation Proximity Assay; format: biochemical; conditions: 2 μM ATP, 20 μM PIP2
PI3Kγ (p110γ) Recombinant Human Protein, sequence (P48736 whole entry): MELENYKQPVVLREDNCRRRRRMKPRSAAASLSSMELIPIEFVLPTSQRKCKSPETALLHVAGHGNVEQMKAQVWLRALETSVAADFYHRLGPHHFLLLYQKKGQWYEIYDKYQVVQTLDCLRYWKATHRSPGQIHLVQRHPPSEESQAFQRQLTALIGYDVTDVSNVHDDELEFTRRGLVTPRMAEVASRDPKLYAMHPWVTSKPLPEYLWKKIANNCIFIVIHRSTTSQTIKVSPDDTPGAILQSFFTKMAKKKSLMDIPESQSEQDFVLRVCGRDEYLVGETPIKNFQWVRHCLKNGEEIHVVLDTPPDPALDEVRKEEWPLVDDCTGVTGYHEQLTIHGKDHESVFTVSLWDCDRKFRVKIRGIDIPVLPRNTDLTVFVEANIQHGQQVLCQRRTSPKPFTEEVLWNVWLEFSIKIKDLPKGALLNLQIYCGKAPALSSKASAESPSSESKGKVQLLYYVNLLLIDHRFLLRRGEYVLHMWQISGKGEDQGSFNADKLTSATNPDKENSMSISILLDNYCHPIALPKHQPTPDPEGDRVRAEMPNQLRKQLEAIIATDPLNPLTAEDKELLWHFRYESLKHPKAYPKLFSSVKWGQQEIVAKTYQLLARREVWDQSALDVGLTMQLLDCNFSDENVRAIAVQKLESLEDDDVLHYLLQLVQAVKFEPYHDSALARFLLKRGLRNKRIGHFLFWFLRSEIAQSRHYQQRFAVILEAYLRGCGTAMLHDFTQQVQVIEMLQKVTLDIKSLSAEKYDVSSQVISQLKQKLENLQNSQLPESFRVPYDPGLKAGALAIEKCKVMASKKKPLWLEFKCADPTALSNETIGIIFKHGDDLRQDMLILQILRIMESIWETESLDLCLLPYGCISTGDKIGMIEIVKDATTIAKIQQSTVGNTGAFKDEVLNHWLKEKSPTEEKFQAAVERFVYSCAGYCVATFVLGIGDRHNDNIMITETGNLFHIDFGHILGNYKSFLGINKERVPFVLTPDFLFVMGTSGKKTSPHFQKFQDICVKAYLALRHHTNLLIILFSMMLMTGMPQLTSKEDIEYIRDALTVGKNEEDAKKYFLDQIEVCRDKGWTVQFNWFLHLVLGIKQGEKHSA
Excerpt: as §1, with “PI3Kγ (p110γ)” for “PI3Kδ (p110δ/p85α)”, “Life technology (Grand Island, N.Y.).” for “Eurofins (St Charles, Mo.).”
as §2, with “PI3Kγ” for “PI3Kδ”, “13” for “3.4”, “PI3Kγ.” for “PI3Kδ.”, “(Perkin-Elmer).” for “(PerkinElmer).”

[3] = test system: Phosphorylated Ribosomal Protein S6 (RPS6) in THP-1 cells; assay: THP-1 RPS6 ELISA Assay; format: cell-based, Human; conditions: THP-1 cells, 10 nM MCP-1, read-out: PI3Kγ_THP1_RPS6_ELISA IC50
In short: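 Cells serum-starved overnight, pre-incubated with compounds 2 h at 37° C, then stimulated with 10 nM MCP-1 for 15 min. Lysates assayed for phospho-RPS6 by ELISA read at 450 nm. IC50 from percent inhibition vs log concentration curve fit.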

Row | Molecule | pIC50 ([1]; Table A4) | pIC50 ([2]; Table A4) | pIC50 ([3]; Homo sapiens, Table A4) | also measured
1 | 2-(3-(5-amino-6-(2-methylthiazol-5-yl)pyrazin-2-yl)-4-methylphenyl)-3,3,3-trifluoro-2-hydroxypropanamide trifluoroacetate [Example 72] |  |  |  | pIC50 ([1]; Table A3): > 7.00; pIC50 ([2]; Table A3): > 7.00; pIC50 ([3]; Table A3): > 7.00
2 | Cc1ccc(C(O)(C(N)=O)C(F)(F)F)cc1-c1cnc(N)c(C2CN(S(=O)(=O)c3cnn(C)c3)C2)n1 (single isomer, unassigned) [Example 107, 2-(3-(5-Amino-6-(1-((1-methyl-1H-pyrazol-4-yl)sulfonyl)azetidin-3-yl)pyrazin-2-yl)-4-methylphenyl)-3,3,3-trifluoro-2-hydroxypropanamide, trifluoroacetate salt] | > 5.70 | > 7.00 | > 6.00 | 
3 | CCOC(=O)C1CC(c2nc(-c3cc(C(O)(C(N)=O)C(F)(F)F)ccc3C)cnc2N)C1 (single isomer, unassigned) [Example 108, Ethyl 3-(3-amino-6-(5-(3-amino-1,1,1-trifluoro-2-hydroxy-3-oxopropan-2-yl)-2-methylphenyl)pyrazin-2-yl)cyclobutane-1-carboxylate] | > 5.70 | > 6.30 |  | 
4 | Cc1ccc(C(O)(C(N)=O)C(F)(F)F)cc1-c1cnc(N)c(C2CC(C(=O)NC(C)C)C2)n1 (single isomer, unassigned) [Example 110, 3-(3-Amino-6-(5-(3-amino-1,1,1-trifluoro-2-hydroxy-3-oxopropan-2-yl)-2-methylphenyl)pyrazin-2-yl)-N-isopropylcyclobutane-1-carboxamide] | > 6.30 | > 6.30 |  | 
5 | Cc1ccc(C(O)(C(N)=O)C(F)(F)F)cc1-c1cnc(N)c(C2CC(C(=O)NC(C)C)C2)n1 (single isomer, unassigned) [Example 111, 3-(3-Amino-6-(5-(3-amino-1,1,1-trifluoro-2-hydroxy-3-oxopropan-2-yl)-2-methylphenyl)pyrazin-2-yl)-N-isopropylcyclobutane-1-carboxamide] |  | > 7.00 |  | 
6 | Cc1ccc(C(O)(C(=O)N(C)C)C(F)(F)F)cc1-c1cnc(N)c(-n2cncn2)n1 (stereo not shown) [Example 95, 2-(3-(5-Amino-6-(1H-1,2,4-triazol-1-yl)pyrazin-2-yl)-4-methylphenyl)-3,3,3-trifluoro-2-hydroxy-N,N-dimethylpropanamide trifluoroacetate] |  |  |  | pIC50 ([1]; Table A3): > 6.30; pIC50 ([2]; Table A3): > 6.30
7 | Cc1ccc(C(O)(C(N)=O)C(F)(F)F)cc1-c1cnc(N)c(N2CC(=O)N(c3ccc(O)cc3)[C@@H](CO)C2)n1 (stereo partly drawn) [Example 124, 2-(3-(5-amino-6-((R)-3-(hydroxymethyl)-4-(4-hydroxyphenyl)-5-oxopiperazin-1-yl)pyrazin-2-yl)-4-methylphenyl)-3,3,3-trifluoro-2-hydroxypropanamide trifluoroacetate] | > 6.30 |  | > 6.00 | 

More lines, main results first:

Row | pIC50 ([1]; Table A4) | pIC50 ([2]; Table A4) | pIC50 ([3]; Homo sapiens, Table A4) | Molecule | also measured
8 | > 6.30 | > 7.00 |  | CCOC(=O)C1CC(c2nc(-c3cc(C(O)(C(N)=O)C(F)(F)F)ccc3C)cnc2N)C1 (single isomer, unassigned) [Example 109, Ethyl 3-(3-amino-6-(5-(3-amino-1,1,1-trifluoro-2-hydroxy-3-oxopropan-2-yl)-2-methylphenyl)pyrazin-2-yl)cyclobutane-1-carboxylate] | 
9 | > 6.30 |  | > 6.00 | Cc1ccc(C(O)(C(N)=O)C(F)(F)F)cc1-c1cnc(N)c(N2CCN(c3ccccc3C)CC2)n1 (stereo not shown) [Example 118, 2-(3-(5-amino-6-(4-o-tolylpiperazin-1-yl)pyrazin-2-yl)-4-methylphenyl)-3,3,3-trifluoro-2-hydroxypropanamide trifluoroacetate] | 
10 | > 6.30 |  | < 6.00 | Cc1ccc(C)c(N2CCN(c3nc(-c4cc(C(O)(C(N)=O)C(F)(F)F)ccc4C)cnc3N)CC2)c1 (stereo not shown) [Example 119, 2-(3-(5-amino-6-(4-(2,5-dimethylphenyl)piperazin-1-yl)pyrazin-2-yl)-4-methylphenyl)-3,3,3-trifluoro-2-hydroxypropanamide trifluoroacetate] | 
11 | > 6.30 |  | < 6.00 | Cc1ccc(C(O)(C(N)=O)C(F)(F)F)cc1-c1cnc(N)c(N2CCN(c3cccc(C(F)(F)F)c3)CC2)n1 (stereo not shown) [Example 121, 2-(3-(5-amino-6-(4-(3-(trifluoromethyl)phenyl)piperazin-1-yl)pyrazin-2-yl)-4-methylphenyl)-3,3,3-trifluoro-2-hydroxypropanamide trifluoroacetate] | 
12 | > 6.30 |  | > 6.00 | CCOc1ccccc1N1CCN(c2nc(-c3cc(C(O)(C(N)=O)C(F)(F)F)ccc3C)cnc2N)CC1 (stereo not shown) [Example 129, 2-(3-(5-amino-6-(4-(2-ethoxyphenyl)piperazin-1-yl)pyrazin-2-yl)-4-methylphenyl)-3,3,3-trifluoro-2-hydroxypropanamide trifluoroacetate] | 
